Results taken from US11814444B2, “Cyclic polypeptides for PCSK9 inhibition” (Ra Pharmaceuticals, Inc., priority 2018, dated 2023).
Numbered stars: 1 amine (or outer) side, 2 acyl side, 3 side chain; on linkers, the order of the positions; unused ones are H or OH. Bridge positions count the residues as written; N and C are the ends. Square brackets hold non-standard residues; d marks the D form. Peptide text beside a SMILES is read from it. Phe(4-CF3) = N[C@@H](Cc1ccc(C(F)(F)F)cc1)C(=O)O; Trp(5-F) = N[C@@H](Cc1c[nH]c2ccc(F)cc12)C(=O)O; Trp(7-aza) = N[C@@H](Cc1c[nH]c2ncccc12)C(=O)O; X1 = C[C@@](N[*:1])(C(=O)[*:2])c1ccccc1; mXylylene = c1cc(C[*:1])cc(C[*:2])c1; Ala(cPr) = N[C@@H](CC1CC1)C(=O)O; Aad = N[C@@H](CCCC(=O)O)C(=O)O; Tle = CC(C)(C)[C@H](N)C(=O)O; αMeV = CC(C)[C@](C)(N)C(=O)O; Nva = CCC[C@H](N)C(=O)O; Thp = NC1(C(=O)O)CCOCC1; Mpa = O=C(O)CCS

What was measured:
Assay type in all cases: binding
PCSK9 [1] = molecular target: T1, PCSK9 (Homo sapiens, UniProt Q8NBP7); assay: PCSK9 Alexa FRET Plus assay (displacement of AlexaFluor647 tagged cyclic peptide Reagent B); details: 0.5 nM PCSK9, 960 nM AF cyclic peptide Reagent B
T1 sequence (Q8NBP7 153-692): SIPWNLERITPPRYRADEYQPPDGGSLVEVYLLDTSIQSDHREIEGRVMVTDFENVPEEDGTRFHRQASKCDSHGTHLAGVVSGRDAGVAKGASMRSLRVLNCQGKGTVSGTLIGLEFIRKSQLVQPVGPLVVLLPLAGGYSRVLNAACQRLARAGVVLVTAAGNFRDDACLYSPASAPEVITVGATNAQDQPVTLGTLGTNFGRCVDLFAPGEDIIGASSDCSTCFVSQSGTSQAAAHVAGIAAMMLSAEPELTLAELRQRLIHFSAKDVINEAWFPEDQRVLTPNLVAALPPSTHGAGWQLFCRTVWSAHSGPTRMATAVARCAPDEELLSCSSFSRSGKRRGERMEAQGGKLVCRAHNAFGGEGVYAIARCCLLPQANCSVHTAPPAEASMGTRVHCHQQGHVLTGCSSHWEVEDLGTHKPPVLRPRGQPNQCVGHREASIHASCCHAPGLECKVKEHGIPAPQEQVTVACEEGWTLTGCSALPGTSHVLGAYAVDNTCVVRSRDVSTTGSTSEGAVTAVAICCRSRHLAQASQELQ
Protocol: A solution containing 1 nM biotinylated PCSK9+2.5 nM Lance Streptavidin Europium (Strep-Eu) was made in 50 mM HEPES pH 7.4, 0.15 M NaCl, 5 mM CaCl2), 0.01% BSA, and 0.01% Surfactant P20. A separate solution containing 1920 nM of the AlexaFluor tagged cyclic peptide was made in the same buffer system. An Echo was used to transfer 0.075 ul of compound plus 0.675 ul of DMSO to each well of an assay plate followed by the addition of 15 ul of PCSK9+Stept-Eu and 15 ul of AF peptide. The final assay volume was 30.750 ul containing 0.5 nM PCSK9, 1.25 nM Strep-Eu, and 960 nM AF cyclic peptide. The reaction was incubated at room temperature for at least two hours prior to fluorescence measurements using an Envision Multilabel Reader. IC50 values were determined by fitting data to a sigmoidal dose-response curve using nonlinear regression. Ki was then calculated from the IC50 and the KD of AF cyclic peptide. Counts (B-counts) of the europium-labeled PCSK9 were followed to observe if compounds were adversely affecting PCSK9. A fall off of the B-counts likely indicated a false positive of inhibition. Data from this procedure was reported as “P=‘numerical value’ (nanomolar)”

[2] = molecular target: human PCSK9 / human LDLR EGFa domain interaction (Homo sapiens, UniProt Q8NBP7); assay: TR-FRET assay of inhibition of the PCSK9-LDLR protein-protein interaction; details: 20 nM avitag-biotinylated human PCSK9, 20 nM his-tagged human LDLR EGFa domain, 2 hours, room temperature
Chain of human PCSK9 / human LDLR EGFa domain interaction (Q8NBP7 153-692): as above
Chain of human PCSK9 / human LDLR EGFa domain interaction (Q8NBP7 31-152 partner limits assumed): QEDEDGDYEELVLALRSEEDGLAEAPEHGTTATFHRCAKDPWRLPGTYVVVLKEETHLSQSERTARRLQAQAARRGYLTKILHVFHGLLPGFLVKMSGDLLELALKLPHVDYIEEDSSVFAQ
Outline: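 Biotinylated PCSK9 (20 nM) and His-tagged LDLR EGFa domain (20 nM) were incubated 2 h at room temperature with 5 nM Ulight-streptavidin and 5 nM Eu-anti-His in HEPES/NaCl/CaCl2 buffer with 0.01% BSA and 0.01% P20. TR-FRET was read; half-maximal inhibitory concentrations came from 4-parameter dose-response fits.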

PCSK9 [3] = molecular target: T1, PCSK9; assay: PCSK9 Alexa FRET Standard assay (displacement of AlexaFluor647 tagged cyclic peptide Reagent A); details: 0.5 nM PCSK9, 20 nM AF cyclic peptide Reagent A
Outline: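 TR-FRET displacement: 0.5 nM biotinylated PCSK9 with 1.25 nM Strep-Eu and 20 nM AlexaFluor-tagged cyclic peptide (final) in 50 mM HEPES pH 7.4, 0.15 M NaCl, 5 mM CaCl2, 0.01% BSA, 0.01% P20, ≥2 h at room temperature. IC50 from sigmoidal fit, converted to Ki via peptide KD; falling Eu counts flagged false positives.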

Row | SMILES | IC50 (PCSK9 [1]) | IC50 [2] | IC50 (PCSK9 [3])
1 | CC(=O)N[C@H]1CSCc2cccc(c2)CSC[C@H](C(N)=O)NC(=O)[C@H]([C@@H](C)O)NC(=O)[C@](C)(C(C)C)NC(=O)[C@H](Cc2ccc(O)cc2)NC(=O)[C@H](C)NC(=O)C2(CCOCC2)NC(=O)[C@H](Cc2c[nH]c3ncccc23)NC(=O)[C@H]([C@@H](C)O)NC(=O)[C@@H]2CCCN2C(=O)[C@H](Cc2ccc(O)cc2)NC(=O)[C@H](C(C)(C)C)NC1=O [Compound 187] (Ac-C[Tle]YPT[Trp(7-aza)][Thp]AY[αMeV]T[dC]-NH2; linker 1-12 via mXylylene) | 0.001 to 0.1 µM | 0.001 to 0.1 µM | 0.001 to 0.1 µM
2 | CC(=O)N[C@H]1CSCc2cccc(c2)CSC[C@H](C(N)=O)NC(=O)[C@H]([C@@H](C)O)NC(=O)[C@](C)(C(C)C)NC(=O)[C@H](Cc2ccc(O)cc2)NC(=O)[C@H](C)NC(=O)[C@](C)(c2ccccc2)NC(=O)[C@H](Cc2c[nH]c3ncccc23)NC(=O)[C@H]([C@@H](C)O)NC(=O)[C@@H]2CCCN2C(=O)[C@H](Cc2ccc(O)cc2)NC(=O)[C@H](C(C)(C)C)NC1=O [Compound 190] (Ac-C[Tle]YPT[Trp(7-aza)][X1]AY[αMeV]T[dC]-NH2; linker 1-12 via mXylylene) | 0.25 to 2 µM | 21 to 50 µM | 1 to 21 µM
3 | CCC[C@@H]1NC(=O)[C@H](Cc2c[nH]c3ncccc23)NC(=O)[C@H]([C@@H](C)O)NC(=O)[C@H](Cc2c[nH]cn2)NC(=O)[C@H](Cc2ccc(O)cc2)NC(=O)[C@H](C(C)(C)C)NC(=O)CCSCc2cccc(c2)CSC[C@@H](C(N)=O)NC(=O)[C@H]([C@@H](C)O)NC(=O)[C@H](CCC)NC(=O)[C@H](Cc2ccc(O)cc2)NC(=O)[C@H](CCCC(=O)O)NC1=O [Compound 259] ([Mpa][Tle]YHT[Trp(7-aza)][Nva][Aad]Y[Nva]TC-NH2; linker 1-12 via mXylylene) | – | 0.1 to 1 µM | 1 to 21 µM

The remaining lines, values ahead:

Row | IC50 (PCSK9 [1]) | IC50 [2] | IC50 (PCSK9 [3]) | SMILES
4 | – | 1 to 21 µM | 1 to 21 µM | CCC[C@@H]1NC(=O)[C@H](Cc2c[nH]c3ncccc23)NC(=O)[C@H]([C@@H](C)O)NC(=O)[C@H](Cc2c[nH]cn2)NC(=O)[C@H](Cc2ccc(O)cc2)NC(=O)[C@H](C(C)(C)C)NC(=O)CCSCc2cccc(c2)CSC[C@@H](C(N)=O)NC(=O)[C@H]([C@@H](C)O)NC(=O)[C@H](CCC)NC(=O)[C@H](Cc2ccc(C(F)(F)F)cc2)NC(=O)[C@H](CCC(=O)O)NC1=O [Compound 260] ([Mpa][Tle]YHT[Trp(7-aza)][Nva]E[Phe(4-CF3)][Nva]TC-NH2; linker 1-12 via mXylylene)
5 | – | 1 to 21 µM | 1 to 21 µM | CCC[C@@H]1NC(=O)[C@H](Cc2c[nH]c3ncccc23)NC(=O)[C@H]([C@@H](C)O)NC(=O)[C@H](Cc2c[nH]cn2)NC(=O)[C@H](Cc2ccc(O)cc2)NC(=O)[C@H](C(C)(C)C)NC(=O)CCSCc2cccc(c2)CSC[C@@H](C(N)=O)NC(=O)[C@H]([C@@H](C)O)NC(=O)[C@H](CCC)NC(=O)[C@H](Cc2c[nH]c3ccc(F)cc23)NC(=O)[C@H](CCC(=O)O)NC1=O [Compound 261] ([Mpa][Tle]YHT[Trp(7-aza)][Nva]E[Trp(5-F)][Nva]TC-NH2; linker 1-12 via mXylylene)
6 | – | 0.1 to 1 µM | 1 to 21 µM | CCC[C@@H]1NC(=O)[C@H](Cc2c[nH]c3ccc(F)cc23)NC(=O)[C@H]([C@@H](C)O)NC(=O)[C@H](Cc2c[nH]cn2)NC(=O)[C@H](Cc2ccc(O)cc2)NC(=O)[C@H](C(C)(C)C)NC(=O)CCSCc2cccc(c2)CSC[C@@H](C(N)=O)NC(=O)[C@H]([C@@H](C)O)NC(=O)[C@H](CCC)NC(=O)[C@H](Cc2ccc(O)cc2)NC(=O)[C@H](CCC(=O)O)NC1=O [Compound 263] ([Mpa][Tle]YHT[Trp(5-F)][Nva]EY[Nva]TC-NH2; linker 1-12 via mXylylene)
7 | – | 0.1 to 1 µM | 1 to 21 µM | CCC[C@@H]1NC(=O)[C@H](Cc2ccc(O)cc2)NC(=O)[C@H](CCC(=O)O)NC(=O)[C@H](CC2CC2)NC(=O)[C@H](Cc2c[nH]c3ncccc23)NC(=O)[C@H]([C@@H](C)O)NC(=O)[C@H](Cc2c[nH]cn2)NC(=O)[C@H](Cc2ccc(O)cc2)NC(=O)[C@H](C(C)(C)C)NC(=O)CCSCc2cccc(c2)CSC[C@@H](C(N)=O)NC(=O)[C@H]([C@@H](C)O)NC1=O [Compound 264] ([Mpa][Tle]YHT[Trp(7-aza)][Ala(cPr)]EY[Nva]TC-NH2; linker 1-12 via mXylylene)
